Measured values from patent US20250199004A1, “METHODS OF EVALUATING TREATMENT OUTCOME IN HIGH GRADE SEROUS OVARIAN CANCER” (THE REGENTS OF THE UNIVERSITY OF COLORADO, A BODY CORPORATE, priority 2018, published 2025).

Experiments:
[1] = tested on: ID8 Trp53-/- Brca2-/- cells; assay: Syngeneic mouse model, CBX2 intact vs CBX2 knock down tumors; assay type: in vivo, C57BL/6J mice; conditions: 30 mg/kg PO, 28 days
Method: To further elucidate the dependence of alisertib on CBX2, an in vivo study was performed using a syngeneic mouse model with CBX2 intact compared to CBX2 knock down, undergoing treatment with alisertib. Measurements of mRNA expression confirmed that CBX2 knock down was effective (FIG. 15 Panel A). The mice were treated with vehicle control or 30 mg/kg alisertib for 28 days (FIG. 15 Panel B). Tumor-bearing mice were necropsied at the end of treatment and omental weight, number of dissemination sites, and total tumor weight were quantified (FIG. 15 Panels C-E, respectively). […] It can be concluded therefore, that the loss of CBX2 expression in an ovarian cancer model attenuates the anti-tumor response to alisertib. […] Tissue was also collected and processed for further analysis. […] In the second study, mice were treated with 30 mg/kg alisertib, PO, for 28 days, as described above. Due to the weight loss observed in the first study, we reduced treatment from 7 days per week to 5 days per week.

OVCAR4 cells [2] = assay: Proliferation assay, parental vs CRISPR CBX2 knock out cells; assay type: cell-based, human; conditions: OVCAR4 CRISPR/Cas9 CBX2 KO vs parental
Method: Examples 8-12: All drugs were suspended in DMSO at the concentration of 50 mM and aliquoted and stored in -80 C. 1000 cells were seeded in 96 well plate a day prior. 10 fold dilution of drugs in the cultureing media supplemented with FBS and penicillin/Streptomycin was added and cells were cultured until the cells in the no-drug added wells became confluent (5-8 days). Cells were washed with PBS twice and fixed with fixation buffer (10% Methanol and 10% Acetic acid in PBS) followed by staining with Cristal Violet staining solution (0.4% Cristal Violet in 20% Ethanol). […] CBX2 CRISPR knocked-out OVCAR4 cells were created by the University of Colorado Functional Genomics Facility using the IDT Alt-R RNP system. ALT-R crRNA and ATL-R tracrRNA were suspended at 100 μmol/L in nuclease-free IDTE pH7.5. The same volumes of ALT-R crRNA and ATL-R tracrRNA were mixed to prepare gRNA complex at 50μmol/L, heated at 95° C. for 5 minutes, and then were cooled to room temperature. The RNP complex was prepared with 150 pmol of gRNA and 125 pmol of Alt-R Cas9-NLS in final volume of 5 μL in PBS. Cells were harvested in Necleofector solution SF with supplement (Lonza, Basel, Switzerland) at a concentration of 1×10^6 cells per 100 μL. The transfection mix was made with 100 μL of cell suspension, 2.5 μL each of RNP complex, and 0.6 μL of 100 μL of Alt-R Cas9 Electroporation enhancer. […]

[3] = tested on: Histone H2A Lys119 ubiquitination (H2AK119ub); assay: Western blot for H2AK119ub as marker of CBX2/PRC1 activity; assay type: cell-based, human
Method: CBX2 is a known subunit of PRC1, which is critical for normal development and functions as a transcriptional repressor. PRC1 is understood to have histone ubiquitin ligase activity, specifically targeting Histone H2A […] ubiquitination ([…]). In order to evaluate the impact of treatment with alisertib on the broader PRC1 complex, […] was used as a surrogate marker of CBX2 activity in the PRC1. OVCAR4 (***confirm) cells were treated with IC50 doses of each of the 10 candidate inhibitors, a Western blot for […] was compared to a beta-actin control (FIG. 12 Panel C). […] Finally, PRC1 target […] was used to evaluate the impact of treatment with alisertib on the broader PRC1 complex. OVCAR4 and PEO1 cells were treated with increasing doses of aliserib and western blots were performed to evaluate […] as a marker of PRC1 activity (FIG. 14 Panel F). Cell lysis was performed using radioimmunoprecipitation assay (RIPA) buffer (150 mM sodium chloride, Triton X-100, 0.5% sodium deoxycholate, 0.1% SDS [sodium dodecyl sulfate], 50 mM Tris, pH 8.0) supplemented with complete EDTA-free protease inhibitor cocktail (Roche), as well as NaF and NaV. Protein was quantified using bicinchoninic acid (BCA) protein assay (Thermo Fisher Scientific, Waltham, MA) and spectrophotometry. An 8% SDS polyacrylamide gel resolving gel was created with a 4% stacking gel. […]

OVCAR4 cells [4] = assay: Ultra low dilution analysis (ULDA) of stemness; assay type: cell-based, human
Method: An ultralow dilutional assay (ULDA) utilizing the OVCAR4 HGSOC cell line was used to evaluate the functional impact of four inhibitors. The number of spheroids were plotted against the IC50 dose of each agent (FIG. 13 Panel B). The more significant the decrease in spheroids formation capacity, the more significant the decrease in stemness associated with treatment. […] Cells were trypsinized and filtered with a 40-micron filter, creating a single cell suspension. Cells were plated in 96 wells ultra-low attachment plates (CORNING #3474 this is flat bottom, and CORNING #7007: used u bottom for COV504) in 200 ul CSC media (DMEM/F12, 1× B27, 4% FBS, 100 U/ml penicillin/streptomycin, 20 ng/ml human EGF, 20 ng/ml human FGF). After 3 days, 100 μl of medium was gently taken out, then added drugs to final IC50 concentration. The media with drug was replaced with half volume every 4-5 days and cultured for 3 weeks. […] After 4 hours spheroid existence and color were evaluated under the microscope (Incucyte). Observation of purple spheroids confirmed the presence of live cells and were scored as 1. If no spheroids appreciated, or if purple spheroids were not observed it was scored as 0. […] The stem cell frequency was calculated using ultra low limiting dilution analysis (PMID: 19567251).

[5] = tested on: TMEFF1 expression in OVCAR4 cells; assay: TMEFF1 (CBX2 target gene) expression by qPCR; assay type: cell-based, human; conditions: qPCR after treatment of OVCAR4 cells
Method: Ten candidate inhibitors were evaluated based on their ability to inhibit HGSOC cell viability. Dose response assays of all 10 inhibitors were conducted in OVCAR4, PEO1, and COV504 HGSOC cell lines to determine half inhibitory concentration (IC50) (FIG. 12 Panel A). We explored ability of these compounds to downregulate a CBX2 target gene, transmembrane protein with EGF-like and two follistatine-like domains 1 (TMEFF1) (FIG. 12 Panel B).
RNA was isolated using RNAeasy Plus Mini Kit (Qiagen, Hilden Germany) according to the manufacturer's protocol. NanoDrop spectrophotometry was used to measure concentration of extracted RNA. Luna Universal One-step RT qPCR kit (New England BioLabs, Ipswich, MA) was used on BioRad CFX96 (Bio-Rad, Hercules, CA). HPRT or GAPDH were used as internal control as stated in figure legend.

## COc1cc(Nc2ncc3c(n2)-c2ccc(Cl)cc2C(c2c(F)cccc2OC)=NC3)ccc1C(=O)O [alisertib]
[1]
  number of dissemination sites: anti-tumor response in CBX2 knock down mice vs CBX2 intact mice: significant attenuation
  omental weight: anti-tumor response in CBX2 knock down mice vs CBX2 intact mice: significant attenuation
  total tumor weight: anti-tumor response in CBX2 knock down mice vs CBX2 intact mice: significant attenuation
OVCAR4 cells [2]
  IC50 in CBX2 KO cells compared to the parental cells: ten times higher
[3]; OVCAR4 and PEO1 cells, increasing doses
  H2AK119ub, surrogate marker of PRC1 activity: decreased in parallel with CBX2
[3]; OVCAR4 cells, IC50 dose, vs beta-actin control
  Histone H2A Lys119 ubiquitination: decreased
OVCAR4 cells [4]; OVCAR4 CBX2 KO vs parental
  impact on stemness through ULDA on knocking out CBX2: attenuated impact
OVCAR4 cells [4]; treatment at IC50
  stem cell frequency: decreased
[5]
  TMEFF1 expression: significantly inhibited
